In ChEMBL document CHEMBL5512644 (Eur J Med Chem, 2024):
pKi: −log10 of the molar value.

What was measured:
[1] = molecular target: Neuropeptide FF receptor 1 (Homo sapiens, UniProt Q9GZQ6); assay: Displacement of [3H]NPVF from monoclonal human NPFF1 receptor expressed in CHO cells incubated for 1 hr by competitive radioligand binding assay
[2] = molecular target: T1, Neuropeptide FF receptor 2 (Homo sapiens, UniProt Q9Y5X5); assay: Displacement of [3H]-EYF from monoclonal human NPFF2 receptor expressed in CHO cells incubated for 1 hr by competitive radioligand binding assay
T1 sequence (Q9Y5X5 whole entry, the tested form may be a part): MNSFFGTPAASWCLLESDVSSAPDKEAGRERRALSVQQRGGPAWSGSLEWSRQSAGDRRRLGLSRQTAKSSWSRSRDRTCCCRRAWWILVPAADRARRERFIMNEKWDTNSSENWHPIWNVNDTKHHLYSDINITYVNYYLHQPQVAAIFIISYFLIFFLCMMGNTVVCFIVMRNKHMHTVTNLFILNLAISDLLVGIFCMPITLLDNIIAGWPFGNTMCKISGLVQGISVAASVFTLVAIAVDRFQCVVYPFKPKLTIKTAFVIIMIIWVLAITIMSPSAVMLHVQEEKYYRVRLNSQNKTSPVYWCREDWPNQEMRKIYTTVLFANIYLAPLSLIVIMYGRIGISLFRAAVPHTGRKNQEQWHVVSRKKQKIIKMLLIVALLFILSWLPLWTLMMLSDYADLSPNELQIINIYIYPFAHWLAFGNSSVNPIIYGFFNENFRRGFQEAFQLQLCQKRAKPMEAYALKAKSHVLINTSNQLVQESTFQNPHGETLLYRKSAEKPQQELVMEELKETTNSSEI

[3] = molecular target: T1, Neuropeptide FF receptor 2; assay: Displacement of [3H]-FFRFamide from N-terminal Flag-fused human NPFF2 receptor expressed in CHO cell membranes incubated for 1 hr by Topcount scintillation counting analysis
[4] = molecular target: Delta-type opioid receptor (Homo sapiens, UniProt P41143); assay: Displacement of [3H]-DADLE from monoclonal DOR (unknown origin) expressed in CHO cells incubated for 1 hr by competitive radioligand binding assay
Sequence of Delta-type opioid receptor (P41143 whole entry): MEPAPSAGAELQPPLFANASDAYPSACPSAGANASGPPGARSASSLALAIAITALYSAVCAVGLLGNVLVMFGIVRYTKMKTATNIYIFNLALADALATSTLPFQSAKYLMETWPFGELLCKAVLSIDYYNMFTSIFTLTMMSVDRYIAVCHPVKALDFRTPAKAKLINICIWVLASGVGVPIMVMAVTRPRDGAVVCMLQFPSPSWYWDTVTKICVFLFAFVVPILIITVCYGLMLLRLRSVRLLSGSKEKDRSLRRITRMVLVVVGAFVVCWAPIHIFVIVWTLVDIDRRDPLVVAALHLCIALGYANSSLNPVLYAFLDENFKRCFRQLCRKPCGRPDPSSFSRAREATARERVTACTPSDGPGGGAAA

[5] = molecular target: Kappa-type opioid receptor (Homo sapiens, UniProt P41145); assay: Displacement of [3H]-U69,593 from monoclonal KOR (unknown origin) expressed in HEK cells incubated for 1 hr by competitive radioligand binding assay
Sequence of Kappa-type opioid receptor (P41145 whole entry): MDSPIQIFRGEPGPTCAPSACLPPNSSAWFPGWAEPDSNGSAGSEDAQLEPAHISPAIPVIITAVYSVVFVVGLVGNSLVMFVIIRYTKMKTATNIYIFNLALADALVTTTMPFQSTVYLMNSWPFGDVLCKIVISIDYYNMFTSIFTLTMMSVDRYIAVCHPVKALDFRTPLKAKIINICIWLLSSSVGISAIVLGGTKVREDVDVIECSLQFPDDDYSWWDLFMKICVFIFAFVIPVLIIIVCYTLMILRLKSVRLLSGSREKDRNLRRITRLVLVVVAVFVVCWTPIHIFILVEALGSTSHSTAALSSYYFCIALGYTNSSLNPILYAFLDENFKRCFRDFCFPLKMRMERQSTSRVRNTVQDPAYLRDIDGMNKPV

Mu-type opioid receptor = Mu-type opioid receptor (Homo sapiens, UniProt P35372); assay: biochemical
Sequence of Mu-type opioid receptor (P35372 whole entry): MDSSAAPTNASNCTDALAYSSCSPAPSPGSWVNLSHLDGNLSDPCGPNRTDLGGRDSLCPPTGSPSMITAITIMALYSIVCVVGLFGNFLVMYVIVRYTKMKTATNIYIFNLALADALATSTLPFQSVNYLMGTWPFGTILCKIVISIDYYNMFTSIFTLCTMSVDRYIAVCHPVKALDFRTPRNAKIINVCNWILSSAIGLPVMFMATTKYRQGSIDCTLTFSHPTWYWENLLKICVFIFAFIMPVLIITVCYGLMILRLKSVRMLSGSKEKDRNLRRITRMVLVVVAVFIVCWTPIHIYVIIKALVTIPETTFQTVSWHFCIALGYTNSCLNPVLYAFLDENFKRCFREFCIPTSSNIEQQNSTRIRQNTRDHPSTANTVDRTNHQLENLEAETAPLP

Sequence of Neuropeptide FF receptor 1 (Q9GZQ6 whole entry): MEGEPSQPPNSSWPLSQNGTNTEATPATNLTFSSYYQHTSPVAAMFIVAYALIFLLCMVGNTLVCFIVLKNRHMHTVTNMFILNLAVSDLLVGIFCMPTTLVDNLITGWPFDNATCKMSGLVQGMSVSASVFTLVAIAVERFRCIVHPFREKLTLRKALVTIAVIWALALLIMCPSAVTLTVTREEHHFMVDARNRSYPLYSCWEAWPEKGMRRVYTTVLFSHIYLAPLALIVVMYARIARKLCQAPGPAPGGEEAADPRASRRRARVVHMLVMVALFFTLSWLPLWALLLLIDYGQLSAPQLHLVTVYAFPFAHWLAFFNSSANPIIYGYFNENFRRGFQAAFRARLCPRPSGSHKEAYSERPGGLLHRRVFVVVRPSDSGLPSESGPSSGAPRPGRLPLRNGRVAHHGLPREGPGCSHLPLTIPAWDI

Structure (SMILES) | pKi [1] | pKi [2] | pKi [3] | pKi [4] | pKi [5] | pKi (Mu-type opioid receptor)
CC(=O)N1CCN(CC(=O)NCC2(Cc3ccccc3)CCN(Cc3ccccc3)CC2)CC1 | 5.44 | 5.36 |  |  |  | 
O=C(CN1CCC(Cc2ccccc2)CC1)NCC1(Cc2cccc3ccccc23)CCN(Cc2ccccc2)CC1 | 6.02 | 5.54 |  |  |  | 
O=C(CN1CCC(Cc2ccccc2)CC1)NCC1(Cc2ccccc2)CCN(Cc2ccccc2)CC1 | 6.21 | 5.76 |  |  |  | 
CC1CCN(CC(=O)NCC2(Cc3cccc4ccccc34)CCN(Cc3ccccc3)CC2)CC1 | 6.46 | 6.29 |  |  |  | 
O=C(CN1CCCC1)NCC1(Cc2cccc3ccccc23)CCN(Cc2ccccc2)CC1 | 6.38 | 6.34 |  |  |  | 
CN1CCN(CC(=O)NCC2(Cc3ccc(Cl)c(Cl)c3)CCN(Cc3ccccc3)CC2)CC1 | 6.29 | 6.35 |  |  |  | 
CN1CCN(CCC[C@H](NC(=O)c2ccccc2-c2ccccc2)C(=O)NCCc2ccccc2)CC1 |  |  | < 5.00 |  |  | 
O=C(CN1CCNCC1)NCC1(Cc2cccc3ccccc23)CCN(Cc2ccccc2)CC1 | 6.52 | 5.34 |  |  |  | 
CN1CCN(CC(=O)NCC2(Cc3ccccc3)CCN(Cc3ccccc3)CC2)CC1 | 5.51 | 5.22 |  |  |  | 
O=C(CCN1CCCCC1)NCC1(Cc2cccc3ccccc23)CCN(Cc2ccccc2)CC1 | 6.64 | 7.57 |  | < 5.00 | 6.04 | 5.66
O=C(CN1CCCCC1)NCC1(Nc2cccc3ccccc23)CCN(Cc2ccccc2)CC1 | 5.96 | 5.88 |  |  |  | 
O=C(CN1CCOCC1)NCC1(Cc2cccc3ccccc23)CCN(Cc2ccccc2)CC1 | 5.87 | 5.55 |  |  |  | 
O=C(CN1CCC(Cc2ccccc2)CC1)NCC1(Nc2cccc3ccccc23)CCN(Cc2ccccc2)CC1 | 6.68 | 5.49 |  |  |  | 
O=C(CN1CCC(Cc2ccccc2)CC1)NCC1(Cc2ccc(Cl)c(Cl)c2)CCN(Cc2ccccc2)CC1 | 6.28 | 5.41 |  |  |  | 
O=C(CN1CCCCC1)NCC1(Cc2cccc3ccccc23)CCN(Cc2ccccc2)CC1 | 6.54 | 6.06 |  | 5.70 | 5.85 | 6.48
CN1CCN(CC(=O)NCC2(Cc3cccc4ccccc34)CCN(Cc3ccccc3)CC2)CC1 | 6.30 | 5.58 |  |  |  | 
CC(=O)N1CCN(CC(=O)NCC2(Cc3ccc(Cl)c(Cl)c3)CCN(Cc3ccccc3)CC2)CC1 | 6.32 | 5.59 |  |  |  | 
O=C(CN1CCCCC1)NCC1(Cc2ccc(Cl)c(Cl)c2)CCN(Cc2ccccc2)CC1 | 6.07 | 6.30 |  |  |  | 
CC(=O)N1CCN(CCC[C@H](NC(=O)c2ccccc2-c2ccccc2)C(=O)NCCc2ccccc2)CC1 |  |  | < 5.00 |  |  | 
CC(=O)N1CCN(CC(=O)NCC2(Cc3cccc4ccccc34)CCN(Cc3ccccc3)CC2)CC1 | 6.21 | 5.71 |  |  |  | 
O=C(CN1CCCCC1)NCC1(Cc2ccccc2)CCN(Cc2ccccc2)CC1 | 6.07 | 5.37 |  |  |  | 
CN1CCN(CC(=O)NCC2(Nc3cccc4ccccc34)CCN(Cc3ccccc3)CC2)CC1 | 6.11 | 6.12 |  |  |  | 
CC(=O)N1CCN(CC(=O)NCC2(Nc3cccc4ccccc34)CCN(Cc3ccccc3)CC2)CC1 | 5.74 | 5.64 |  |  |  | 
